Assay [1] can be described thus: Inhibition of yeast Hsp90 ATPase expressed in Escherichia coli. Also on record: species or system Saccharomyces cerevisiae.
Another assay has as its system MCF7. In words: Growth inhibition of human MCF7 cells after days by SRB assay. The format is functional.

Each structure is given as a SMILES string.

In assay [1], `COc1cc(/C=C/c2nc3ccccc3c(=O)n2-c2ccccc2O)ccc1O` displayed an IC50 of 2.3 µM. For the same compound, growth with MCF7 was halved (GI50) at 9.6 µM.

Consider `COc1ccc(-n2c(/C=C/c3cccc(OC)c3O)nc3ccccc3c2=O)cc1`, for which the IC50 in assay [1] was found to be 31.8 µM. For the same compound, halving of growth with MCF7 (GI50) required 25.4 µM.

Compound `COC1=C2C[C@@H](C)C[C@H](OC)[C@H](O)[C@@H](C)/C=C(\C)[C@H](OC(N)=O)[C@@H](OC)/C=C\C=C(/C)C(=O)NC(=CC1=O)C2=O` [GELDANAMYCIN] gave an IC50 in assay [1] of 22 µM. In addition, the GI50 in the assay with MCF7 came out at 35.6 µM.

As to `O=C(O)c1ccc(-n2c(/C=C/c3ccccc3O)nc3ccccc3c2=O)cc1`, in assay [1], inhibition was half-maximal at 20 µM (IC50). The compound further registered a GI50 in the assay with MCF7 of 27.5 µM.

The record behind these values is ChEMBL document CHEMBL1140482, “A novel class of Hsp90 inhibitors isolated by structure-based virtual screening” (Bioorg Med Chem Lett, 2007).
